From the supplement of paper PMC10307832

Key:
Assay in all cases: relative viability (nuclei count vs DMSO), 5 days (fraction); higher = more cells survive
A-427 = tested on: A-427
In short: (§1)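 For relative viability, nuclei counts in treated wells were divided by those in vehicle wells. Lung cancer cell lines had been pin-tool dosed in 1536-well plates the day after seeding and cultured for 5 days, then fixed and stained in one step (final 0.05% Triton X-100, 1% formaldehyde, 1 ug/ml Hoechst) and imaged at 4×. Doses were one drug alone or a fixed anchor-drug dose plus five library-drug doses (not always all listed) in √10 steps, and values are duplicate-plate medians.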

COR-L23 = tested on: COR-L23
In short: as §1

ChaGo-K-1 = tested on: ChaGo-K-1
In short: as §1

EKVX = tested on: EKVX
In short: as §1

EPLC-272H = tested on: EPLC-272H
In short: as §1

HCC-366 = tested on: HCC-366
In short: as §1

HCC-78 = tested on: HCC-78
In short: as §1

HOP-62 = tested on: HOP-62
In short: as §1

IA-LM = tested on: IA-LM
In short: as §1

LOU-NH91 = tested on: LOU-NH91
In short: as §1

NCI-H1299 = tested on: NCI-H1299
In short: as §1

NCI-H1395 = tested on: NCI-H1395
In short: as §1

NCI-H1734 = tested on: NCI-H1734
In short: as §1

NCI-H1915 = tested on: NCI-H1915
In short: as §1

NCI-H2023 = tested on: NCI-H2023
In short: as §1

NCI-H2087 = tested on: NCI-H2087
In short: as §1

NCI-H3122 = tested on: NCI-H3122
In short: as §1

NCI-H358 = tested on: NCI-H358
In short: as §1

NCI-H596 = tested on: NCI-H596
In short: as §1

NCI-H650 = tested on: NCI-H650
In short: as §1

NCI-H661 = tested on: NCI-H661
In short: as §1

NCI-H838 = tested on: NCI-H838
In short: as §1

SK-MES-1 = tested on: SK-MES-1
In short: as §1

SW 900 = tested on: SW 900
In short: as §1

In the case of `CCCCCCCCCCCC1=C(O)C(=O)C=C(O)C1=O` [Embelin] + COc1cc2c(Oc3ccc(NC(=O)C4(C(=O)Nc5ccc(F)cc5)CC4)cc3F)ccnc2cc1OCCCN1CCOCC1 [Foretinib] (partner 0.25 µM), the relative viability (A-427; first compound 0.08 µM) was 1.15, the relative viability (A-427; first compound 0.8 µM) was 1.14 and the relative viability (A-427; first compound 2.53 µM) was 1.12. For the same compound, the relative viability (A-427; first compound 8 µM) was 1.2, the relative viability (COR-L23; first compound 0.08 µM) was 1 and the relative viability (COR-L23; first compound 0.8 µM) was 1.13. The relative viability (COR-L23; first compound 2.53 µM) was 1.01, the relative viability (COR-L23; first compound 8 µM) was 1.14 and the relative viability (ChaGo-K-1; first compound 0.08 µM) was 0.951. For the same compound, the relative viability (ChaGo-K-1; first compound 0.8 µM) was 1.01, the relative viability (ChaGo-K-1; first compound 2.53 µM) was 1 and the relative viability (ChaGo-K-1; first compound 8 µM) was 1.01. The relative viability (EKVX; first compound 0.08 µM) was 0.789, the relative viability (EKVX; first compound 0.8 µM) was 0.926 and the relative viability (EKVX; first compound 2.53 µM) was 0.625. For the same compound, the relative viability (EKVX; first compound 8 µM) was 0.875, the relative viability (EPLC-272H; first compound 0.08 µM) was 0.736 and the relative viability (EPLC-272H; first compound 0.8 µM) was 0.866. The relative viability (EPLC-272H; first compound 2.53 µM) was 0.916, the relative viability (EPLC-272H; first compound 8 µM) was 0.65 and the relative viability (HCC-366; first compound 0.08 µM) was 0.906. It also gave a relative viability (HCC-366; first compound 0.8 µM) of 1.03, a relative viability (HCC-366; first compound 2.53 µM) of 0.94 and a relative viability (HCC-366; first compound 8 µM) of 0.99. For the same compound, the relative viability (HCC-78; first compound 0.08 µM) was 0.544, the relative viability (HCC-78; first compound 0.8 µM) was 0.601 and the relative viability (HCC-78; first compound 2.53 µM) was 0.65. The relative viability (HCC-78; first compound 8 µM) was 0.559, the relative viability (HOP-62; first compound 0.08 µM) was 1.27 and the relative viability (HOP-62; first compound 0.8 µM) was 1.18. For the same compound, the relative viability (HOP-62; first compound 2.53 µM) was 1.23, the relative viability (HOP-62; first compound 8 µM) was 1.25 and the relative viability (IA-LM; first compound 0.08 µM) was 1.05. It also gave a relative viability (IA-LM; first compound 0.8 µM) of 1.17, a relative viability (IA-LM; first compound 2.53 µM) of 1.16 and a relative viability (IA-LM; first compound 8 µM) of 1.16. For the same compound, the relative viability (LOU-NH91; first compound 0.08 µM) was 0.968, the relative viability (LOU-NH91; first compound 0.8 µM) was 1.08 and the relative viability (LOU-NH91; first compound 2.53 µM) was 1.09. It also gave a relative viability (LOU-NH91; first compound 8 µM) of 0.978, a relative viability (NCI-H1299; first compound 0.08 µM) of 1.08 and a relative viability (NCI-H1299; first compound 0.8 µM) of 1.11. For the same compound, the relative viability (NCI-H1299; first compound 2.53 µM) was 1.14, the relative viability (NCI-H1299; first compound 8 µM) was 1.13 and the relative viability (NCI-H1395; first compound 0.08 µM) was 0.904. For the same compound, the relative viability (NCI-H1395; first compound 0.8 µM) was 1.13, the relative viability (NCI-H1395; first compound 2.53 µM) was 1.08 and the relative viability (NCI-H1395; first compound 8 µM) was 0.953. For the same compound, the relative viability (NCI-H1734; first compound 0.08 µM) was 0.899, the relative viability (NCI-H1734; first compound 0.8 µM) was 0.926 and the relative viability (NCI-H1734; first compound 2.53 µM) was 0.989. It also gave a relative viability (NCI-H1734; first compound 8 µM) of 0.924, a relative viability (NCI-H1915; first compound 0.08 µM) of 1.14 and a relative viability (NCI-H1915; first compound 0.8 µM) of 1.1. The relative viability (NCI-H1915; first compound 2.53 µM) was 1.13, the relative viability (NCI-H1915; first compound 8 µM) was 1.13 and the relative viability (NCI-H2023; first compound 0.08 µM) was 0.819. The relative viability (NCI-H2023; first compound 0.8 µM) was 0.891, the relative viability (NCI-H2023; first compound 2.53 µM) was 0.887 and the relative viability (NCI-H2023; first compound 8 µM) was 0.75. For the same compound, the relative viability (NCI-H2087; first compound 0.08 µM) was 1.07, the relative viability (NCI-H2087; first compound 0.8 µM) was 1.27 and the relative viability (NCI-H2087; first compound 2.53 µM) was 1.03. For the same compound, the relative viability (NCI-H2087; first compound 8 µM) was 1.19, the relative viability (NCI-H3122; first compound 0.08 µM) was 0.98 and the relative viability (NCI-H3122; first compound 0.8 µM) was 1.01. The relative viability (NCI-H3122; first compound 2.53 µM) was 0.951, the relative viability (NCI-H3122; first compound 8 µM) was 1.03 and the relative viability (NCI-H358; first compound 0.08 µM) was 0.753. It also gave a relative viability (NCI-H358; first compound 0.8 µM) of 0.81, a relative viability (NCI-H358; first compound 2.53 µM) of 0.976 and a relative viability (NCI-H358; first compound 8 µM) of 0.869. It also gave a relative viability (NCI-H596; first compound 0.08 µM) of 0.834, a relative viability (NCI-H596; first compound 0.8 µM) of 0.835 and a relative viability (NCI-H596; first compound 2.53 µM) of 1.02. The relative viability (NCI-H596; first compound 8 µM) was 0.764, the relative viability (NCI-H650; first compound 0.08 µM) was 0.998 and the relative viability (NCI-H650; first compound 0.8 µM) was 1.21. The relative viability (NCI-H650; first compound 2.53 µM) was 1.08, the relative viability (NCI-H650; first compound 8 µM) was 1.02 and the relative viability (NCI-H661; first compound 0.08 µM) was 1.03. The relative viability (NCI-H661; first compound 0.8 µM) was 1.08, the relative viability (NCI-H661; first compound 2.53 µM) was 0.994 and the relative viability (NCI-H661; first compound 8 µM) was 0.976. It also gave a relative viability (NCI-H838; first compound 0.08 µM) of 1.08, a relative viability (NCI-H838; first compound 0.8 µM) of 1.11 and a relative viability (NCI-H838; first compound 2.53 µM) of 1.06. The relative viability (NCI-H838; first compound 8 µM) was 1.09, the relative viability (SK-MES-1; first compound 0.08 µM) was 0.943 and the relative viability (SK-MES-1; first compound 0.8 µM) was 1.22. It also gave a relative viability (SK-MES-1; first compound 2.53 µM) of 0.972, a relative viability (SK-MES-1; first compound 8 µM) of 0.94 and a relative viability (SW 900; first compound 0.08 µM) of 0.89. It also gave a relative viability (SW 900; first compound 0.8 µM) of 0.915, a relative viability (SW 900; first compound 2.53 µM) of 1.02 and a relative viability (SW 900; first compound 8 µM) of 0.876.
